# Where two headings read alike, the source gives them in different places.
# Key:
# [1] = test system: DLBCL and rhabdoid INI1-deficient patients; design: method as in earlier work; details: phase 1 clinical trial, monotherapy; cited from earlier work
# [2] = test system: Pfeiffer cells (Parental); assay: Viability assay (Cell-Titer-Glo, 6 days), parental Pfeiffer cells; type: cell-based; details: Homo sapiens
# [3] = test system: E-100 Pfeiffer cells; assay: Viability assay, EPZ-6438-resistant E-100 Pfeiffer cells; type: cell-based; details: Homo sapiens, read-out: IC50 cell viability
# [4] = test system: E-200 Pfeiffer cells; assay: Viability assay, EPZ-6438-resistant E-200 Pfeiffer cells; type: cell-based; details: Homo sapiens, read-out: IC50 cell viability
# [5] = test system: H3K27me3 in Pfeiffer cells (Parental); assay: Cellular H3K27me3 AlphaLISA, parental Pfeiffer cells; type: cell-based; details: Homo sapiens, Figure 3B
# Experimental: Cells were plated at 500 cells/well in 10% DMEM, 50 uL/well in 384 well plates. […] DMSO (0.1%) was used as a vehicle control. Plates were incubated for 72 hours at 37°C. […] Plates were read using AlphaLISA protocol on Envision (Perkin Elmer).
# [6] = test system: H3K27me3 in E-200 Pfeiffer cells; assay: Cellular H3K27me3 AlphaLISA, E-200 Pfeiffer cells; type: cell-based; details: Homo sapiens; Pfeiffer E-200; Figure 3B
# Experimental: Cells were plated at 500 cells/well in 10% DMEM, 50 uL/well in 384 well plates. […] DMSO (0.1%) was used as a vehicle control. Plates were incubated for 72 hours at 37°C. […] Plates were read using AlphaLISA protocol on Envision (Perkin Elmer). […] Pfeiffer cells were treated overnight with 100 μg/mL of N-ethyl-N-nitrosourea (ENU; Sigma Aldrich, St. […] After 7 days, cells were dosed again with fresh compound and grown until outgrowth (3 to 4 weeks). […] Ion semiconductor sequencing (Ion Torrent) and single molecule real time sequencing (PacBio) were performed at Molecular MD and Expression analysis (Quintiles), respectively.
# [7] = test system: Pfeiffer cells stably-expressing Y111D/A677G EZH2 mutant; assay: Viability assay, Pfeiffer cells stably-expressing Y111D/A677G EZH2; details: Homo sapiens, read-out: IC50 cell viability
# [8] = test system: Pfeiffer cells stably-expressing Y111D/Y641F EZH2 mutant; assay: Viability assay, Pfeiffer cells stably-expressing Y111D/Y641F EZH2
# [9] = test system: Pfeiffer cells stably expressing Y111D/A677G/H689A; assay: Viability assay, Pfeiffer cells stably expressing Y111D/A677G/H689A EZH2; details: Homo sapiens, read-out: IC50 cell viability
# [10] = test system: H3K27me3 in Pfeiffer cells stably-expressing Y111D/A677G EZH2 mutant; assay: Cellular H3K27me3 AlphaLISA, Pfeiffer cells stably-expressing Y111D/A677G EZH2; details: Homo sapiens, read-out: IC50 H3K27me3
structure (smiles),measurement,setting,value
CCN(c1cc(-c2ccc(CN3CCOCC3)cc2)cc(C(=O)NCc2c(C)cc(C)[nH]c2=O)c1C)C1CCOCC1 [EPZ-6438],clinical response,[1],durable objective responses
CC[C@H](C)n1cc(C)c2c(C(=O)NCc3c(C)cc(C)[nH]c3=O)cc(-c3ccc(N4CCNCC4)nc3)cc21 [GSK126],IC50,"[2]; Parental Pfeiffer, Figure 1C, three independent experiments",23 ± 5 nM
same,IC50,"[2]; Pfeiffer Parental, Figure 3C",33 ± 7 nM
same,IC50,"[2]; Pfeiffer Parental, Figure 4B",30 ± 5 nM
same,IC50,"[3]; E-100, Unwash, Figure 1E",4030 ± 370 nM
same,IC50,"[3]; E-100, Wash 8 weeks (drug withdrawal), Figure 1E",1220 ± 89 nM
same,IC50,"[3]; E-100 Pfeiffer, Figure 1C",3960 ± 1040 nM
same,IC50,"[4]; E-200, Unwash, Figure 1E",3150 ± 508 nM
same,IC50,"[4]; E-200, Wash 8 weeks (drug withdrawal), Figure 1E",2010 ± 1560 nM
same,IC50,"[4]; E-200 Pfeiffer, Figure 1C",3980 ± 994 nM
same,IC50,[5],36 ± 27 nM
same,IC50,[6],> 10000 nM
same,IC50,[7],2670 ± 1370 nM
same,IC50,"[8]; Homo sapiens, Pfeiffer, read-out: IC50 cell viability",111 ± 35 nM
same,increase in IC50 values,"[8]; Y111D/Y641F, both growth and H3K27 tri-methylation",3–4 fold
same,IC50,[9],25 ± 9 nM
same,IC50,[10],5000 ± 1590 nM

# From article PMC4741719, “Acquisition of a single EZH2 D1 domain mutation confers acquired resistance to EZH2-targeted inhibitors” (Oncotarget, 2015)
